Some test systems named below: COLO 205 colon; HCT-15 colon; HOP-92 NSCLC; HT29 colon; K-562 leukemia; NCI/ADR-RES ovarian; OVCAR-3 ovarian; OVCAR-8 ovarian; RXF 393 renal; SR leukemia; U251 CNS; SK-MEL-2 melanoma; UO-31 renal.
What all share (assay): NCI tumour cell line growth inhibition, 48 h

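Values below derive from 48-hour exposures of cells grown in 96-well plates, with endpoints linearly interpolated between the two concentrations bracketing the appropriate inhibition level. Definition used: TGI = concentration required for complete inhibition of growth.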

From PubChem BioAssay (NCI) come the findings set out here.

On to `CC(=O)c1cccc(Nc2nc3ccccc3c3occc23)c1`, for which the TGI in the assay with COLO 205 colon is above 100 µM; in the assay with HCT-15 colon, above 100 µM; in the assay on HOP-92 NSCLC, 33 µM; with HT29 colon it was above 100 µM; in the assay on K-562 leukemia, above 100 µM; in the assay with NCI/ADR-RES ovarian it was above 100 µM. The TGI in the assay with OVCAR-3 ovarian was above 100 µM; in the assay with OVCAR-8 ovarian, 74.5 µM; in the assay on RXF 393 renal, 41.7 µM; with SR leukemia, above 100 µM; in the assay on U251 CNS, 55.9 µM.

As for `CSC1=C(C#N)C(=S)N=C(N)C1C(=O)Nc1ccc(C)cc1` (stereo not drawn), the TGI with COLO 205 colon, in the assay with HCT-15 colon, in the assay with HT29 colon, with K-562 leukemia, in the assay on NCI/ADR-RES ovarian and with OVCAR-3 ovarian was above 100 µM throughout. In addition, the TGI with OVCAR-8 ovarian, with RXF 393 renal, in the assay on SK-MEL-2 melanoma, with SR leukemia, in the assay with U251 CNS and in the assay with UO-31 renal was above 100 µM in each case.

Take `O=c1c2cccnc2n2n1Cc1ccccc1C2`: the TGI in the assay with HCT-15 colon, in the assay on HOP-92 NSCLC, in the assay with HT29 colon, in the assay with K-562 leukemia, in the assay on NCI/ADR-RES ovarian and with OVCAR-3 ovarian was above 100 µM each time. The TGI in the assay on OVCAR-8 ovarian, in the assay with RXF 393 renal, in the assay on SR leukemia, in the assay on U251 CNS and with UO-31 renal was above 100 µM in each case.

Turning to `NC(=O)C(=CNC(N)=S)C(N)=O`, the TGI with COLO 205 colon, in the assay with HCT-15 colon, in the assay with HT29 colon, in the assay on K-562 leukemia, in the assay with NCI/ADR-RES ovarian and with OVCAR-3 ovarian was above 100 µM in each case. Moreover, the TGI in the assay with OVCAR-8 ovarian, in the assay with RXF 393 renal, in the assay on SK-MEL-2 melanoma, in the assay on SR leukemia, in the assay on U251 CNS and in the assay with UO-31 renal was above 100 µM in each case.

On to `Cc1ccc(Nc2nc(=O)c3c4ccccc4n(C(=O)OC(C)(C)C)c3s2)cc1`, for which the TGI in the assay on COLO 205 colon is above 100 µM; in the assay with HCT-15 colon, above 100 µM; in the assay with HOP-92 NSCLC, above 100 µM; in the assay on HT29 colon it was above 100 µM; in the assay with K-562 leukemia, above 100 µM; with NCI/ADR-RES ovarian it was 32.5 µM. In addition, the TGI was 55.7 µM in the assay on OVCAR-3 ovarian; above 100 µM with OVCAR-8 ovarian; 59.2 µM in the assay on SK-MEL-2 melanoma; 44.9 µM with SR leukemia; above 100 µM with U251 CNS; 22.8 µM in the assay on UO-31 renal.

In the case of `O=C1N(C2CCCCC2)C(=O)N1C1CCCCC1`, the TGI stood at 16.2 µM in the assay with COLO 205 colon; 22.2 µM in the assay with HCT-15 colon; 19.5 µM with HOP-92 NSCLC; 25.3 µM with HT29 colon; 13.4 µM in the assay on K-562 leukemia; 14.9 µM in the assay on NCI/ADR-RES ovarian. Moreover, the TGI in the assay on OVCAR-3 ovarian was above 100 µM; in the assay with OVCAR-8 ovarian it was 16.6 µM; in the assay on SK-MEL-2 melanoma it was 85.5 µM; with SR leukemia it was 8.83 µM; in the assay with U251 CNS it was 18.7 µM; in the assay on UO-31 renal it was 0.199 µM.

In the case of `Cc1cccc2oc3c(CC(=O)O)cccc3c(=O)c12`, the TGI in the assay with COLO 205 colon, in the assay on HCT-15 colon, with HOP-92 NSCLC, in the assay with HT29 colon, with K-562 leukemia and in the assay on NCI/ADR-RES ovarian was above 100 µM each time. Besides, the TGI with OVCAR-3 ovarian is above 100 µM; in the assay on OVCAR-8 ovarian it was above 100 µM; in the assay on SK-MEL-2 melanoma, 17.4 µM; with SR leukemia, above 100 µM; in the assay with U251 CNS, above 100 µM; in the assay on UO-31 renal, above 100 µM.

Regarding `COc1ccc(NC(=S)Nc2cc(C)cc(C)n2)cc1`, the TGI in the assay with COLO 205 colon, in the assay with HCT-15 colon, with HT29 colon, with K-562 leukemia, with NCI/ADR-RES ovarian and with OVCAR-3 ovarian was above 100 µM each time. Moreover, the TGI with OVCAR-8 ovarian, in the assay with RXF 393 renal, in the assay on SK-MEL-2 melanoma, with SR leukemia, with U251 CNS and with UO-31 renal was above 100 µM in each case.

Turning to `CN(Cc1cnc2nc(N)nc(N)c2n1)c1ccc(C(=O)NCCS(=O)(=O)O)cc1`, the TGI with COLO 205 colon, in the assay on HCT-15 colon, in the assay with HT29 colon, in the assay with K-562 leukemia, in the assay with NCI/ADR-RES ovarian and in the assay with OVCAR-3 ovarian was above 100 µM in each case. Further, the TGI with OVCAR-8 ovarian, in the assay on SK-MEL-2 melanoma, in the assay with SR leukemia, in the assay with U251 CNS and in the assay with UO-31 renal was above 100 µM throughout.

As for `C[N+](C)(CCCn1ccnc1[N+](=O)[O-])CCCn1ccnc1[N+](=O)[O-]`, the TGI in the assay with COLO 205 colon, with HCT-15 colon, in the assay with HT29 colon, with K-562 leukemia, in the assay with NCI/ADR-RES ovarian and in the assay with OVCAR-3 ovarian was above 100 µM each time. For the same compound, the TGI in the assay with OVCAR-8 ovarian, in the assay on RXF 393 renal, in the assay with SK-MEL-2 melanoma, in the assay on SR leukemia, in the assay with U251 CNS and in the assay with UO-31 renal was above 100 µM in each case.

Consider `S=C(N1CCN(c2ccc(Cl)c(Cl)c2)CC1)N1CCN(c2ccc(Cl)c(Cl)c2)CC1`, for which the TGI with COLO 205 colon turned out to be 22.4 µM; with HCT-15 colon, 28.8 µM; in the assay on HT29 colon, 21.3 µM; in the assay on K-562 leukemia it was 26.7 µM; in the assay with NCI/ADR-RES ovarian it was 30.3 µM; in the assay with OVCAR-3 ovarian it was 26.3 µM. In addition, the TGI with OVCAR-8 ovarian worked out at 28.3 µM; in the assay with RXF 393 renal it was 35.1 µM; in the assay on SK-MEL-2 melanoma it was 41.7 µM; in the assay on SR leukemia, 5.82 µM; in the assay with U251 CNS it was 28 µM; in the assay with UO-31 renal, 25.8 µM.

Consider `Cc1ccc(Cc2n[nH]c(=O)[nH]2)cc1`, for which the TGI with COLO 205 colon, with HCT-15 colon, in the assay on HOP-92 NSCLC, in the assay on HT29 colon, with K-562 leukemia and in the assay with NCI/ADR-RES ovarian was above 100 µM in each case. Further, the TGI in the assay on OVCAR-3 ovarian, with OVCAR-8 ovarian, in the assay on SK-MEL-2 melanoma, in the assay with SR leukemia, in the assay with U251 CNS and in the assay on UO-31 renal was above 100 µM throughout.

Regarding `O=C(NC(=S)Nc1ccc(Br)cc1)c1ccc2c(c1)Sc1ccccc1S2`, the TGI in the assay with COLO 205 colon is above 100 µM; in the assay on HCT-15 colon, above 100 µM; with HOP-92 NSCLC, 32.5 µM; with HT29 colon, 95.1 µM; in the assay on K-562 leukemia it was 24.5 µM; with NCI/ADR-RES ovarian, 55.9 µM. Besides, the TGI came out at 41.2 µM in the assay with OVCAR-3 ovarian; 34.7 µM in the assay with OVCAR-8 ovarian; 57.9 µM in the assay on SK-MEL-2 melanoma; 35.5 µM with SR leukemia; 35 µM with U251 CNS; 26.6 µM in the assay with UO-31 renal.

On to `CCCN(CCC)CCc1ccc(OC2=CCN(C)CC2)cc1`, for which the TGI is above 100 µM in the assay with COLO 205 colon; above 100 µM in the assay with HCT-15 colon; 46.4 µM in the assay with HT29 colon; above 100 µM in the assay on K-562 leukemia; above 100 µM with NCI/ADR-RES ovarian; above 100 µM with OVCAR-3 ovarian. For the same compound, the TGI was above 100 µM in the assay on OVCAR-8 ovarian; above 100 µM in the assay with RXF 393 renal; above 100 µM in the assay on SK-MEL-2 melanoma; 81.7 µM in the assay with SR leukemia; above 100 µM in the assay on U251 CNS; 88.3 µM with UO-31 renal.

In the case of `C1=CC2(C=CC13O[C@H](C1CCCCC1)[C@@H](C1CCCCC1)O3)O[C@H](C1CCCCC1)[C@@H](C1CCCCC1)O2`, the TGI with COLO 205 colon, with HCT-15 colon, with HT29 colon, with K-562 leukemia, in the assay with NCI/ADR-RES ovarian and with OVCAR-3 ovarian was above 50 µM each time. Also, the TGI in the assay with OVCAR-8 ovarian, in the assay on RXF 393 renal, in the assay with SK-MEL-2 melanoma, in the assay with SR leukemia, in the assay with U251 CNS and with UO-31 renal was above 50 µM each time.

Turning to `Cc1ccc(N=N/C(=N/NC(=O)c2cc(Cl)ccc2O)c2ccc(N(CCC#N)CCC#N)cc2C)cc1`, the TGI was 44.2 µM in the assay on COLO 205 colon; above 100 µM in the assay with HCT-15 colon; 60.6 µM in the assay with HT29 colon; above 100 µM in the assay with K-562 leukemia; above 100 µM in the assay on NCI/ADR-RES ovarian; 55.9 µM in the assay on OVCAR-3 ovarian. Besides, the TGI with OVCAR-8 ovarian was 54.7 µM; in the assay with RXF 393 renal it was above 100 µM; in the assay with SK-MEL-2 melanoma, 68.4 µM; in the assay on SR leukemia it was above 100 µM; with U251 CNS, above 100 µM; in the assay on UO-31 renal, 64.9 µM.

In the case of `CCCCS(=O)(=O)CCC(N)P(=O)(O)O` (stereo not drawn), the TGI in the assay on COLO 205 colon, with HCT-15 colon, with HOP-92 NSCLC, with HT29 colon, with K-562 leukemia and with NCI/ADR-RES ovarian was above 100 µM each time. In addition, the TGI in the assay with OVCAR-3 ovarian, in the assay with OVCAR-8 ovarian, in the assay with SK-MEL-2 melanoma, in the assay with SR leukemia, in the assay with U251 CNS and with UO-31 renal was above 100 µM throughout.

For the compound `C=CC[C@H]1O[Si](C(C)(C)C)(C(C)(C)C)[C@H](C)[C@H]1C`, the TGI in the assay with COLO 205 colon, in the assay on HCT-15 colon, in the assay on HOP-92 NSCLC, in the assay with HT29 colon, in the assay with K-562 leukemia and with NCI/ADR-RES ovarian was above 100 µM in each case. Besides, the TGI in the assay with OVCAR-3 ovarian, with OVCAR-8 ovarian, in the assay with SK-MEL-2 melanoma, in the assay with SR leukemia, with U251 CNS and in the assay on UO-31 renal was above 100 µM throughout.
